In patent US20200375999A1, “PHARMACEUTICAL COMBINATIONS OF EGFR INHIBITORS AND METHODS OF USE THEREOF” (DANA-FARBER CANCER INSTITUTE, INC., priority 2018, published 2020):
Like-named read-outs stand apart in the source and are kept apart here.

Experiments:
[1] = molecular target: T1, EGFR T790M/L858R Ba/F3 cell line (Homo sapiens, UniProt P00533, T790M/L858R, cells depend on it); experiment: Ba/F3 cell proliferation (MTS assay), EGFR T790M/L858R; format: cell-based, murine
T1 construct: "The constructs were shuttled into the retroviral vector JP1540 using the BD Creator™ System (BD Biosciences)
T1 sequence (P00533 whole entry T790M/L858R): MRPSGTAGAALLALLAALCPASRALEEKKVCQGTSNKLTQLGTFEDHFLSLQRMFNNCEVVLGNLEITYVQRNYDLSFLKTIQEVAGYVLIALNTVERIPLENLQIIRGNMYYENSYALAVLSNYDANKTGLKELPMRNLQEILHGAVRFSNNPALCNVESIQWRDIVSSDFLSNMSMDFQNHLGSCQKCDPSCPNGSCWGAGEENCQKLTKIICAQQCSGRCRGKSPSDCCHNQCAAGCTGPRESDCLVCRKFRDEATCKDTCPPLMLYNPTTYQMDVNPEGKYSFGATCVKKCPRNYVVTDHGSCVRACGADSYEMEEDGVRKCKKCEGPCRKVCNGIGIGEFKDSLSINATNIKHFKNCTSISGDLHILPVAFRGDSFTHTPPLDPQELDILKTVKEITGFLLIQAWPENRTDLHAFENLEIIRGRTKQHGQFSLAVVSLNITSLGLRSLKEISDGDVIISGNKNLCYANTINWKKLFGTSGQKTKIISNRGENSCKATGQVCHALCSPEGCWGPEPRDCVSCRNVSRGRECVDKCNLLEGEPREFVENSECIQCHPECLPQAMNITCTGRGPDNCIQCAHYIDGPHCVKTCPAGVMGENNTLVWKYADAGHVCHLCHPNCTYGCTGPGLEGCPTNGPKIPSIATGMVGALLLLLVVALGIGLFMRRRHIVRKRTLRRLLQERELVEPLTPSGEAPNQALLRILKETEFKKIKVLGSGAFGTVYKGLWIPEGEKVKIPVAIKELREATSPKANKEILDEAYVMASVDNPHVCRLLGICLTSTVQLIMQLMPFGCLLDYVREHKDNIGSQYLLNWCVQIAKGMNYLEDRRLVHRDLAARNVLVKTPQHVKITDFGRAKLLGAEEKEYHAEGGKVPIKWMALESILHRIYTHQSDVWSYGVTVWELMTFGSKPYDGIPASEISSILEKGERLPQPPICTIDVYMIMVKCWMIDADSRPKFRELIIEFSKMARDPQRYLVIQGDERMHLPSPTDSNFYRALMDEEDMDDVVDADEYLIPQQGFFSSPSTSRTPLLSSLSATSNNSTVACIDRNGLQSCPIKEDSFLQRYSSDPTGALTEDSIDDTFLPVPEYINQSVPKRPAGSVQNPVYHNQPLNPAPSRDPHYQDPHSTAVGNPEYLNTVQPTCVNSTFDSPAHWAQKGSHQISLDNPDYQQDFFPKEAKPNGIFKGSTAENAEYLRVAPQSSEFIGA
Method: All cell lines were maintained in RPM 1640 (Cellgro; Mediatech Inc., Herndon, Calif.) supplemented with 10% FBS 100 units/mL penicillin, 100 units/mL streptomycin, and 2 mM glutamine. […] The EGFR 1941R mutation was introduced via site directed mutagenesis using the Quick Change Site-Directed Mutagenesis kit (Stratagene: La Jolla, Calif.) according to the manufacturer's instructions. All constructs were confirmed by DNA sequencing. The constructs were shuttled into the retroviral vector JP1540 using the BD Creator™ System (BD Biosciences). Ba/F3 cells were infected with retrovirus and according to standard protocols, as described previously (Zhou 2009). Stable clones were obtained by selection in puromycin (2 μg/ml).
Growth and inhibition of growth was assessed by MTS assay and was performed according to previously established methods (Zhou 2009). The MTS assay is a colorimetric method for determining the number of viable cells that is based on the bioreduction of MTS by cells to a formazan product that is soluble in cell culture medium and can be detected spectrophotometrically. […] All experimental points were set up in six wells and all experiments were repeated at least three times. […] The curves were fitted using anon-linear regression model with a sigmoidal dose response.

[2] = molecular target: T2, recombinant EGFR T790M/L858R kinase (Homo sapiens, UniProt P00533, L858R/T790M); experiment: HTRF-based EGFR biochemical assay
T2 construct: Constructs spanning residues 696-1022 of the human EGFR; GST (cleaved yes); made in house; host or cells: Sf9 insect cells
T2 sequence (P00533 696-1022 T790M/L858R): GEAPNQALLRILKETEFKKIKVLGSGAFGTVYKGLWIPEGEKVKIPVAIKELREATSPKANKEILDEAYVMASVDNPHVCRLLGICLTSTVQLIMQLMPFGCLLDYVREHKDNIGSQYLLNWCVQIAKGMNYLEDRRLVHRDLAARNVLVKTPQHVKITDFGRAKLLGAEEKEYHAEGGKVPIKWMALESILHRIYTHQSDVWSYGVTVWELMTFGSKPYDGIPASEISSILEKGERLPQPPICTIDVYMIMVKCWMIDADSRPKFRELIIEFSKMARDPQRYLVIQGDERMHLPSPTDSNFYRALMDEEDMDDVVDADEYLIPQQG
Method: EGFR kinase proteins were purified by glutathione-affinity chromatography followed by size-exclusion chromatography after cleavage with TEV or thrombin to remove the GST fusion partner following established procedures. (Yun 2008; Yun 2007).
EGFR biochemical assays were carried out using a homogeneous time-resolved fluorescence (HTRF) assay as described previously. The reaction mixtures contained 1 μM biotin-Lck-peptide substrate, wild type or mutant EGFR enzyme in reaction buffer (50 mM HEPES pH 7.1, 10 mM MgCl2, 0.01% BSA. 1 mM TCEP and 0.1 mM Na3VO4) at a final volume of 10 μL. […] All reactions were carried out at room temperature in white ProxiPlate™ 384-well Plus plates (PerkinElmer) and were quenched with 5 μL of 0.2 M EDTA at 60 min. Five μL per well of the detection reagent containing 2.5 ng PT66K (Cis-bio) and 0.05 μg SAXL (Prozyme) were added, and the plates were then incubated at room temperature for 1 hour and read with an EnVision plate reader.

[3] = test system: EGFR L858R/T790M/C797S Ba/F3 cell line; experiment: Ba/F3 cell proliferation (MTS assay), EGFR L858R/T790M/C797S; format: cell-based, murine
Method: The EGFR mutant L858R, Del E746_A750, L858R/T790M, DelE746_A750/T790M, L858R/T790M/C797S and Del/T790M/C797S Ba/F3 cells were previously described (Zhou et al., Nature 462, (2009), 1070-1074). All cell lines were maintained in RPM 1640 (Cellgro; Mediatech Inc., Herndon, Calif.) supplemented with 10% FBS 100 units/mL penicillin, 100 units/mL streptomycin, and 2 mM glutamine. L858R cells were maintained in ACL-4 media (Invitrogen, Carlsbad, Calif.) supplemented with 5% FBS, 100 units/mL penicillin, 100 units/mL streptomycin, and 2 mM glutamine. The EGFR 1941R mutation was introduced via site directed mutagenesis using the Quick Change Site-Directed Mutagenesis kit (Stratagene: La Jolla, Calif.) according to the manufacturer's instructions. All constructs were confirmed by DNA sequencing. The constructs were shuttled into the retroviral vector JP1540 using the BD Creator™ System (BD Biosciences). Ba/F3 cells were infected with retrovirus and according to standard protocols, as described previously (Zhou 2009). Stable clones were obtained by selection in puromycin (2 μg/ml).
Growth and inhibition of growth was assessed by MTS assay and was performed according to previously established methods (Zhou 2009). The MTS assay is a colorimetric method for determining the number of viable cells that is based on the bioreduction of MTS by cells to a formazan product that is soluble in cell culture medium and can be detected spectrophotometrically. Ba/F3 cells of different EGFR genotypes were exposed to treatment and the number of cells used per experiment determined empirically and has been previously established (Zhou 2009). All experimental points were set up in six wells and all experiments were repeated at least three times. […] The curves were fitted using anon-linear regression model with a sigmoidal dose response.

## O=C1c2cc(-c3ccc(N4CCNCC4)cc3)ccc2Nc2ccccc2N1Cc1ccccc1 [Compound I-11]
[1]; absence of cetuximab, read-out: Ba/F3 cellular activity (EC50) T790M/L858R
  EC50: ≥ 750 nM
[1]; compound at 1 μM in the presence of 1 μg/mL cetuximab, EGFR T790M/L858R Ba/F3
  Activity (% cetuximab); inhibition of proliferation: B (25 ≤ B < 50)
[1]; compound at 1 μM, EGFR T790M/L858R Ba/F3
  Activity (% DMSO control); inhibition of proliferation: D (75 ≤ D)
[1]; read-out: Ba/F3 cellular activity (EC50) T790M/L858R + Cetuximab (1 μg/mL), presence of 1 μg/mL cetuximab
  EC50: 250 to 500 nM
[2]
  IC50: < 250 nM
[3]; compound at 1 μM in the presence of 1 μg/mL cetuximab, EGFR L858R/T790M/C797S
  Activity (% cetuximab); inhibition of proliferation: C (50 ≤ C < 75)
[3]; compound at 1 μM, EGFR L858R/T790M/C797S Ba/F3
  Activity (% DMSO control); inhibition of proliferation: D (75 ≤ D)
